Measured values as given in US20080255111A1, “Tissue Factor Production Inhibitor” (SANKYO COMPANY LIMITED, priority 2004, published 2008).

The molecules below were run on tissue factor mRNA in LPS-stimulated mouse peritoneal macrophages (assay: Assay of mouse peritoneal macrophage tissue factor mRNA). Conditions: 6 h, read-out: Expressed Amount of Tissue Factor mRNA.
Format: cell-based
Experimental: 3 ml of thioglycolate (Sigma Chemical) were administered into the abdominal cavity of male C57BL/6J mice (Charles River) followed 4 days later by intraperitoneal administration of 10 ml of phosphate-buffered saline (hereinafter PBS) containing heparin (Hishiyama Pharmaceutical) at a concentration of 5 U/ml and recovery of intraperitoneal macrophages using a syringe. After centrifuging the recovered macrophages at 1000 rpm and 4° C. for 5 minutes, the supernatant was discarded followed by suspending in RPMI 1640 medium (Gibco Laboratories) containing normal fetal bovine serum (hereinafter FBS) at a concentration of 10%. The macrophages were adjusted to a concentration of 4×10^6 cells/ml, disseminated in 1 ml aliquots in a 12-well plate, and cultured for 3 hours at 37° C. using a CO2 incubator. Subsequently, the cells were washed with PBS, and the medium was replaced with RPMI medium containing lipoprotein-deficient serum (hereinafter LPDS) (Sigma Chemical) at a concentration of 5%. Test compounds dissolved in dimethylsulfoxide (DMSO) at a concentration of 1 μM were added to make a final DMSO concentration of 0.1%, and after warming for 18 hours at 37° C., lipopolysaccharide (hereinafter LPS) (Sigma Chemical) was added to make a concentration of 100 ng/ml. The cells were recovered 6 hours later, RNA was extracted using the Rneasy Mini Kit (Qiagen), and after carrying out a reverse transcription reaction using the First-Strand cDNA Synthesis Kit (Amersham Biosciences), the expressed amounts of tissue factor mRNA and cyclophylin mRNA were measured by quantitative RT-PCR (TaqMan, Applied Biosystems 7700 Sequence Detector).
Quantitative RT-PCR for tissue factor was carried out using the aforementioned TF-1 and TF-2 as primers and TF-P as probes, while quantitative PCR for cyclophilin was carried out using the aforementioned Cyl-1 and Cyl-2 as primers and Cyl-P as probes. Both were carried out by warming for 2 minutes at 50° C. and then for 10 minutes at 95° C., followed by 40 warming cycles consisting of warming for 15 seconds at 95° C. and then for 1 minute at 60° C. The expressed amount of tissue factor mRNA was calculated as a relative value of the expressed amount of cyclophilin mRNA. The expressed amounts of tissue factor mRNA resulting from the test compounds at a concentration of 1 μM or 10 μM based on a value of 100 for the expressed amount of tissue factor mRNA in a case of treatment with DMSO at a concentration of […] are shown in Table 7.

SMILES | mrna remaining at 10 µM
C[C@H](CCC(=O)N(C)C)[C@H]1CCC2C3CC=C4C[C@@H](O)CC[C@]4(C)C3CC[C@@]21C (stereo partly drawn) [Compound J, N,N-Dimethyl-3β-hydroxycholenamide, reference compound] | 39.3%

Same assay, conditions: test compound 1 μM, 18 h, then LPS 100 ng/ml for 6 h, relative to cyclophilin mRNA, DMSO treatment = 100, read-out: Expressed Amount of Tissue Factor mRNA

SMILES | mrna remaining at 1 µM
O=C(O)Cc1cccc(OCCCN(Cc2cccc(C(F)(F)F)c2Cl)CC(c2ccccc2)c2ccccc2)c1 [Compound C, 2-(3-{3-[[2-Chloro-3-(trifluoromethyl)benzyl](2,2-diphenylethyl)amino]propoxy}-phenyl)acetic acid, reference compound] | 68.8%
CC(C)(C)OC(=O)n1c(COc2ccc(-c3ccc(CC(=O)O)c(Cl)c3)cc2)cc2ccc(F)cc21 [Reference Example 10, (4′-([1-(tert-Butoxycarbonyl)-6-fluoro-1H-indol-2-yl]methoxy)-3-chloro-1,1′-biphenyl-4-yl)acetic acid] | 68.9%
CN(C(=O)C1CC1)c1ccc(OCc2ccc(C(F)(F)F)c(O)c2C(=O)OC(C)(C)C)cc1 [Reference Example 5, tert-Butyl 6-({4-[(cyclopropylcarbonyl)(methyl)amino]phenoxy}methyl)-2-hydroxy-3-(trifluoromethyl)benzoate] | 64.3%
CC(C)(C)OC(=O)n1c(COc2ccc(-c3ccc(CC(=O)O)cc3)cc2)cc2ccc(F)cc21 [Reference Example 9, (4′-{[1-(tert-Butoxycarbonyl)-6-fluoro-1H-indol-2-yl]methoxy}-1,1′-biphenyl-4-yl)acetic acid] | 66%
CN(C(=O)CC1CC1)c1ccc(OCc2ccc(C(F)(F)F)c(O)c2C(=O)OC(C)(C)C)cc1 [Reference Example 8, tert-Butyl 6-({4-[(cyclopropylacetyl) (methyl)amino]phenoxy}methyl)-2-hydroxy-3-(trifluoromethyl)benzoate] | 51.8%
CC(C)(C)OC(=O)n1c(COc2ccc(-c3ccc(CC(=O)O)s3)cc2)cc2ccc(F)cc21 [Reference Example 11, [5-(4-{[1-(tert-Butoxycarbonyl)-6-fluoro-1H-indol-2-yl]methoxy}phenyl)-2-thienyl]acetic acid] | 61.1%
CC(C)c1ccc(COc2ccc(-c3ccc(CC(=O)O)cc3)cc2)c(C(=O)OC(C)(C)C)c1O [Reference Example 18, (4′-{[2-(tert-Butoxycarbonyl)-3-hydroxy-4-isopropylbenzyl]oxy}-1,1′-biphenyl-4-yl)acetic acid] | 56.9%
CC(C)(C)OC(=O)c1c(COc2ccc(-c3ccc(CC(=O)O)s3)cc2)ccc(C(F)(F)F)c1O [Reference Example 21, [5-(4-{[2-(tert-Butoxycarbonyl)-3-hydroxy-4-(trifluoromethyl)benzyl]oxy}phenyl)-2-thienyl]acetic acid] | 68.9%
COc1cc2nc(Cc3ccccc3)n(-c3ccc(C(O)(C(F)(F)F)C(F)(F)F)cc3)c(=O)c2cc1OC [Compound D, 2-Benzyl-6,7-dimethoxy-3-[4-[2,2,2-trifluoro-1-hydroxy-1-(trifluoromethyl)ethyl]phenyl]-4(3H)-quinazolinone] | 39%
O=c1c2cc(OCCO)ccc2nc(Cc2ccccc2)n1-c1ccc(C(O)(C(F)(F)F)C(F)(F)F)cc1 [Compound E, 2-Benzyl-6-(2-hydroxyethoxy)-3-[4-[2,2,2-trifluoro-1-hydroxy-1-(trifluoromethyl)ethyl]phenyl]-4(3H)-quinazolinone] | 37.7%
CC(C)(C)OC(=O)c1c(COc2ccc(-c3ccc(CC(=O)O)c(F)c3)cc2)ccc(C(F)(F)F)c1O [Reference Example 23, (4′-{[2-(tert-Butoxycarbonyl)-3-hydroxy-4-(trifluoromethyl)benzyl]oxy}-3-fluoro-1,1′-biphenyl-4-yl)acetic acid] | 51.6%
COc1cc(CC(=O)O)ccc1-c1ccc(OCc2ccc(C(F)(F)F)c(O)c2C(=O)OC(C)(C)C)cc1 [Reference Example 25, (4′-{[2-(tert-Butoxycarbonyl)-3-hydroxy-4-(trifluoromethyl)benzyl]oxy}-2-methoxy-1,1′-biphenyl-4-yl)acetic acid] | 64%
CCc1ccc(COc2ccc(N(C)C(C)=O)cc2)c(C(=O)OC(C)(C)C)c1O [Reference Example 7, tert-Butyl 6-({4-[acetyl(methyl)amino]phenoxy}methyl)-3-ethyl-2-hydroxybenzoate] | 68%

Same assay, conditions: test compound 10 μM, 18 h, then LPS 100 ng/ml for 6 h, relative to cyclophilin mRNA, DMSO treatment = 100, read-out: Expressed Amount of Tissue Factor mRNA

SMILES | mrna remaining at 10 µM
CC(C)(C)OC(=O)c1c(COc2ccc(-c3ccc(C(CO)C(=O)O)cc3)cc2)ccc(C(F)(F)F)c1O (stereo not shown) [Reference Example 32, 2-(4′-{[2-(tert-Butoxycarbonyl)-3-hydroxy-4-(trifluoromethyl)benzyl]oxy}-1,1′-biphenyl-4-yl)-3-hydroxypropanoic acid] | 48.5%
COc1cc(-n2c(Cc3ccccc3)nc3cc(N4CCOCC4)c(F)cc3c2=O)ccc1C(O)(C(F)(F)F)C(F)(F)F [Compound H, 2-Benzyl-6-fluoro-3-{3-methoxy-4-[2,2,2-trifluoro-1-hydroxy-1-(trifluoromethyl)ethyl]phenyl}-7-(4-morpholinyl)-4(3H)-quinazolinone] | 56%
CC(C)(C)OC(=O)c1c(COc2ccc(-c3cccc(S(C)(=O)=O)c3)cc2)ccc(C(F)(F)F)c1O [Reference Example 29, tert-Butyl 2-hydroxy-6-({[3′-(methylsulfonyl)-1,1′-biphenyl-4-yl]oxy}methyl)-3-(trifluoromethyl)benzoate] | 88.4%
COc1cc2nc(Cc3ccsc3)n(-c3cc(C(O)(C(F)(F)F)C(F)(F)F)ccc3C)c(=O)c2cc1Cl [Reference Example 1, 6-Chloro-7-methoxy-3-{2-methyl-5-[2,2,2-trifluoro-1-hydroxy-1-(trifluoromethyl)ethyl]phenyl}-2-(3-thienylmethyl)-4(3H)-quinazolinone] | 41.1%
CC(C)(C)OC(=O)c1c(COc2ccc(-c3ccc(CC(=O)O)cc3)cc2)ccc(F)c1O [Reference Example 19, (4′-{[2-(tert-Butoxycarbonyl)-4-fluoro-3-hydroxybenzyl]oxy}-1,1′-biphenyl-4-yl)acetic acid] | 51.6%
CC(C)c1cc(CC(=O)O)ccc1-c1ccc(OCc2ccc(C(F)(F)F)c(O)c2C(=O)OC(C)(C)C)cc1 [Reference Example 33, (4′-{[2-(tert-Butoxycarbonyl)-3-hydroxy-4-(trifluoromethyl)benzyl]oxy}-2-isopropyl-1,1′-biphenyl-4-yl)acetic acid] | 37.2%

What follows are molecules tested on tissue factor mRNA in kidneys of LPS-dosed mice (assay: Assay of tissue factor mRNA using LPS-dosed mouse (kidney)). Conditions: male C57BL/6J mice, 10 mg/kg oral once a day for 7 days; LPS 4 mg/kg i.p., kidneys 6 hours later; PG/Tween only = 100.
Format: in vivo
Experimental: Test compounds were dissolved in a solution comprising a 4:1 mixture of propylene glycol (Wako Pure Chemical Industries) and Tween 80 (Kao) (hereinafter PG/Tween) followed by oral administration by gavage for 7 days at 10 mg/kg once a day in the evening to male C57BL/6J mice (Charles River). LPS was administered intraperitoneally at 4 mg/kg at 9:00 AM on the day following the 7th day of administration of PG/Tween, after which the animals were laparotomized under ether anesthesia 6 hours later to excise the kidneys. RNA was extracted from the kidneys using Trizol reagent (Invitrogen). After carrying out a reverse transcription reaction on the resulting RNA using the First-Strand cDNA Synthesis Kit, the expressed amounts of tissue factor mRNA and cyclophilin mRNA were measured in the same manner as the aforementioned Test Example 1. The expressed amounts of tissue factor mRNA for the test compounds when administered at a concentration of 10 mg/kg based on a value of 100 for the expressed amount of tissue factor mRNA in a case of administration of PG/Tween only are shown in Table 8.

SMILES | Expressed Amount of Tissue Factor mRNA
O=C(O)Cc1cccc(OCCCN(Cc2cccc(C(F)(F)F)c2Cl)CC(c2ccccc2)c2ccccc2)c1 [Compound C, 2-(3-{3-[[2-Chloro-3-(trifluoromethyl)benzyl](2,2-diphenylethyl)amino]propoxy}-phenyl)acetic acid, reference compound] | 54.1
COc1cc2nc(Cc3ccccc3)n(-c3ccc(C(O)(C(F)(F)F)C(F)(F)F)cc3)c(=O)c2cc1OC [Compound D, 2-Benzyl-6,7-dimethoxy-3-[4-[2,2,2-trifluoro-1-hydroxy-1-(trifluoromethyl)ethyl]phenyl]-4(3H)-quinazolinone] | 63.5
